What was measured:
[1] = tested on: human GABAB-R (ChEMBL ID: CHEMBL2111463); details: cited from earlier work
[2] = Solubility of stock in 100% DMSO; type: physicochemical; details: stock reduced to 5 mM
Method: The 34 compounds for in vitro testing were purchased from MolPort (https://www.molport.com/). The test compounds were dissolved in 100% DMSO at a stock concentration of 10 mM and stored at −20 °C. […] Stock compounds were subsequently serially diluted in 100% DMSO and finally in a D-glucose solution (20 mM NaOH, 5 mM D-glucose) to obtain final concentrations for testing.

GABAB-R = details: read-out: Ki value; cited from earlier work

Molecule | Activity [1] | other results
CCOC(OCC)P(=O)(O)CCCN [CHEMBL40157, NCCCP(=O)(C(OCC)OCC)O] | Antagonist | –
NCC(CC(=O)O)c1ccc(Cl)s1 (stereo not shown) [CHEMBL87482, NCC(CC(=O)O)c1ccc(Cl)s1] | Agonist | –
NCC(C[PH](=O)O)c1ccccc1 (stereo not shown) [CHEMBL109752, NCC(C[PH](=O)O)c1ccccc1] | Agonist | –
NC(CC[PH](=O)O)c1ccc(Cl)cc1 (stereo not shown) [CHEMBL110306, NC(CC[PH](=O)O)c1ccc(Cl)cc1] | Agonist | –
NCCC(c1ccccc1)[PH](=O)O (stereo not shown) [CHEMBL111127, NCCC(c1ccccc1)[PH](=O)O] | Agonist | –
NCC(C[PH](=O)O)c1ccc(F)cc1 (stereo not shown) [CHEMBL111378, NCC(C[PH](=O)O)c1ccc(F)cc1] | Agonist | –
CP(=O)(O)CC(O)CN (stereo not shown) [CHEMBL113348, CP(=O)(CC(CN)O)O] | Agonist | –
NCC(O)C[PH](=O)O (stereo not shown) [CHEMBL113453, NCC(O)C[PH](=O)O] | Agonist | –
NCCC(c1ccc(Cl)cc1)[PH](=O)O (stereo not shown) [CHEMBL114020, NCCC(c1ccc(Cl)cc1)[PH](=O)O] | Agonist | –
NCC(C[PH](=O)O)c1ccc(Cl)cc1 (stereo not shown) [CHEMBL430501, NCC(C[PH](=O)O)c1ccc(Cl)cc1] | Agonist | –
CC(NCC(O)CP(=O)(O)Cc1ccccc1)c1ccc(Cl)c(Cl)c1 (stereo not shown) [CHEMBL455185, OC(CP(=O)(Cc1ccccc1)O)CNC(c1ccc(c(c1)Cl)Cl)C] | Antagonist | –
NCC(O)(CS(=O)(=O)O)c1ccc(Cl)cc1 (stereo not shown) [CHEMBL1256573, NCC(c1ccc(cc1)Cl)(CS(=O)(=O)O)O] | Antagonist | –
CC(C)(CO)Cc1cc(C(C)(C)C)c(O)c(C(C)(C)C)c1 [CHEMBL1256697, CC(C)(CO)Cc1cc(C(C)(C)C)c(O)c(C(C)(C)C)c1] | PAM | –
CN(Cc1ccc(Cl)c(Cl)c1)Cc1nc2ccsc2c(=O)[nH]1 [Compound 5, CN(Cc1ccc(Cl)c(Cl)c1)Cc1nc2ccsc2c(=O)[nH]1] | – | solubility of 10 mM stock [2]: solubility problems
CSCCC(NC(=O)N1CC(O)=Nc2ccccc21)C(=O)NCc1ccc(Cl)cc1Cl (stereo not shown) [Compound 25, CSCCC(NC(=O)N1CC(O)=Nc2ccccc12)C(=O)NCc1ccc(Cl)cc1Cl] | – | solubility of 10 mM stock [2]: solubility problems
CGP54626 | – | Ki (GABAB-R): 7.08 nM

— article PMC12138688, “Identification of Orthosteric GABAB Receptor Ligands by Virtual Screening and In Vitro Validation” (ACS Omega, 2025)
